# Measured values reported in ChEMBL document CHEMBL1129068, “Structure-activity relationships of the antimalarial agent artemisinin. 5. Analogs of 10-deoxoartemisinin substituted at C-3 and C-9” (J Med Chem, 1996).
# What was measured:
# Plasmodium falciparum [1] = assay: Relative in vitro activity compared to artemisinin against Plasmodium falciparum D6 (Sierra Leone); format: functional
# Plasmodium falciparum [2] = assay: Relative in vitro activity compared to artemisinin against Plasmodium falciparum Indochina W2; format: functional
structure (smiles),measurement,setting,value
C[C@@H]1CC[C@H]2CCO[C@@H]3O[C@@]4(CCC(=O)O)CC[C@@H]1[C@@]23OO4,Relative activity,Plasmodium falciparum [1],0.09
same,Relative activity,Plasmodium falciparum [2],0.09
C[C@@H]1CC[C@H]2[C@@H](CCCc3ccccc3)CO[C@@H]3O[C@@]4(C)CC[C@@H]1[C@]32OO4,Relative activity,Plasmodium falciparum [1],5073
same,Relative activity,Plasmodium falciparum [2],2506
CCCCC[C@H]1CO[C@@H]2O[C@@]3(C)CC[C@H]4[C@H](C)CC[C@@H]1[C@@]24OO3,Relative activity,Plasmodium falciparum [1],170
same,Relative activity,Plasmodium falciparum [2],145
CCOC(=O)CC[C@@]12CC[C@H]3[C@H](C)CC[C@H]4CCO[C@H](O1)[C@]43OO2,Relative activity,Plasmodium falciparum [1],422
same,Relative activity,Plasmodium falciparum [2],506
CCC[C@@]12CC[C@H]3[C@H](C)CC[C@H]4CCO[C@H](O1)[C@]43OO2,Relative activity,Plasmodium falciparum [1],722
same,Relative activity,Plasmodium falciparum [2],685
CC[C@@]12CC[C@H]3[C@H](C)CC[C@H]4CCO[C@H](O1)[C@]43OO2,Relative activity,Plasmodium falciparum [1],10
same,Relative activity,Plasmodium falciparum [2],10
C[C@@H]1CC[C@H]2CCO[C@@H]3O[C@@]4(C)CC[C@@H]1[C@@]23OO4,Relative activity,Plasmodium falciparum [1],237
same,Relative activity,Plasmodium falciparum [2],190
C[C@@H]1CC[C@H]2[C@@H](CCCc3ccc(Cl)cc3)CO[C@@H]3O[C@@]4(C)CC[C@@H]1[C@]32OO4,Relative activity,Plasmodium falciparum [1],6991
same,Relative activity,Plasmodium falciparum [2],3317
CC(C)C[C@@]12CC[C@H]3[C@H](C)CC[C@H]4CCO[C@H](O1)[C@]43OO2,Relative activity,Plasmodium falciparum [1],183
same,Relative activity,Plasmodium falciparum [2],250
CCC[C@H]1CO[C@@H]2O[C@@]3(C)CC[C@H]4[C@H](C)CC[C@@H]1[C@@]24OO3,Relative activity,Plasmodium falciparum [1],473
same,Relative activity,Plasmodium falciparum [2],550
CCCC[C@@]12CC[C@H]3[C@H](C)CC[C@H]4CCO[C@H](O1)[C@]43OO2,Relative activity,Plasmodium falciparum [1],653
same,Relative activity,Plasmodium falciparum [2],556
C[C@@H]1CC[C@H]2[C@@H](C)CO[C@@H]3O[C@]4(C)CC[C@@H]1[C@]32OO4 [DEOXOARTEMISININ],Relative activity,Plasmodium falciparum [1],659
same,Relative activity,Plasmodium falciparum [2],567
CC[C@H]1CO[C@@H]2O[C@@]3(C)CC[C@H]4[C@H](C)CC[C@@H]1[C@@]24OO3,Relative activity,Plasmodium falciparum [1],914
same,Relative activity,Plasmodium falciparum [2],466
C[C@@H]1CC[C@H]2CCO[C@@H]3O[C@@]4(CCc5ccccc5)CC[C@@H]1[C@@]23OO4,Relative activity,Plasmodium falciparum [1],6
same,Relative activity,Plasmodium falciparum [2],2
CCCC[C@H]1CO[C@@H]2O[C@@]3(C)CC[C@H]4[C@H](C)CC[C@@H]1[C@@]24OO3,Relative activity,Plasmodium falciparum [1],5826
same,Relative activity,Plasmodium falciparum [2],2090
C[C@@H]1CC[C@H]2CCO[C@@H]3O[C@@]4(CCCCc5ccccc5)CC[C@@H]1[C@@]23OO4,Relative activity,Plasmodium falciparum [1],336
same,Relative activity,Plasmodium falciparum [2],380
C[C@@H]1CC[C@H]2CCO[C@@H]3O[C@@]4(CCCc5ccc(Cl)cc5)CC[C@@H]1[C@@]23OO4,Relative activity,Plasmodium falciparum [1],13
same,Relative activity,Plasmodium falciparum [2],28
